Read-outs that look alike come from different tables or passages of the source.
Tests used:
[1] = biological target: T1, IRAK4-HiBiT fusion protein (Homo sapiens, UniProt Q9NWZ3); experiment: Detection of HiBiT-IRAK4 proteolysis levels in K562 IRAK4-HiBiT cells (Nano-Glo HiBiT Lytic assay); type: cell-based
T1 construct: K562 from ATCC
T1 sequence (Q9NWZ3 1-460): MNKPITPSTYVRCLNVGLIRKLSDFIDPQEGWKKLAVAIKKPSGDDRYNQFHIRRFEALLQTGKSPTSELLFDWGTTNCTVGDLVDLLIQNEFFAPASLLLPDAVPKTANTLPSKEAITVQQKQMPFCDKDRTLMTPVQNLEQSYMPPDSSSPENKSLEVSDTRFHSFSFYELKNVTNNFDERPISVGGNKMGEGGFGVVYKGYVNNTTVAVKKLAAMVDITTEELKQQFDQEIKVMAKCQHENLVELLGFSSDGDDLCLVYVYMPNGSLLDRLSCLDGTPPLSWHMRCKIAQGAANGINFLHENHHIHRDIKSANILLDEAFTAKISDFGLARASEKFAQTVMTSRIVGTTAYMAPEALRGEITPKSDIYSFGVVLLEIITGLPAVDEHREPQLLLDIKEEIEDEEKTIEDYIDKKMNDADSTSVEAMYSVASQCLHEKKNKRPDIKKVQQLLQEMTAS
Method: Test Example 1 Detection of HiBiT-IRAK4 proteolysis levels in K562 IRAK4-HiBiT cells co-incubated with compounds of the present application • Reagents, devices, and consumables in experiments: • Nano-Glo Lytic Detection Assay, purchased from Promega; • EnVision, purchased from PerkinElmer; • Name of cell line: K562 IRAK4-HiBiT stable transformation cell strain (capable of stably expressing IRAK4-HiBiT fusion protein), constructed by Shanghai Bioduro Biologics Co., Ltd., where a K562 cell strain was purchased from ATCC. The culture medium is IMDM+10% FBS+1% P/S (volume percentage, where FBS is fetal bovine serum and P/S is Penicillin-Streptomycin, a 1:1 mixture of penicillin and streptomycin antibiotic solution (10,000 units/mL)).
Cell culture: K562 IRAK4-HiBiT cells were incubated at 37°C, and passaged every 2-3 d, with a seeding density of 200,000 cells/mL.
IRAK4-HiBiT proteolysis experiment: • Step 1: Cell seeding and treatment of compound • 1. A 10 mM compound mother liquor was prepared using DMSO, and a compound solution with a working concentration of 1,000 times (the highest working concentration is 10 µM, diluted 3.162 times, with a total of 10 concentration gradients) was prepared using Bravo automatic liquid processing platform. • 2. 40 nL of a compound working solution was transferred to a 384 well plate, and an equal volume of DMSO was added to positive control wells. • 3. 20 µL of a culture solution was added per well and shaken for 10 min. • 4.20 µL of a K562 IRAK4-HiBiT cell suspension was added per well (6,000 cells/well), and an equal volume of culture medium was added to negative control wells. • 5. The well plate was rotated at 1,000 rpm for 1 min. • 6. The cells were incubated in a 5% CO2 incubator at 37°C for 2 h or 6 h. • Step 2: HiBiT Lytic experiment • 1. The well plate was placed at room temperature to equilibrate for 30 min. • 2. 20 µL of Nano-Glo HiBiT Lytic reagent (trade name: Nano-Glo® HiBiT Lytic Detection Reagent) and the well plate was kept in the dark. • 3. The well plate was placed on an orbital shaker at 300 rpm for 5 min. • 4. The cells were incubated at room temperature for 10 min. • 5. The luminous value was read by Envision. • 6. Data was calculated and processed. Degradation degree%=(negative control - experimental well)/(negative control - positive control) * 100%. Using XL-fit software, a degradation curve was obtained by fitting using a 4 Parameter Logistic Model, and the values of Relative DC50 (nM) and Absolute DC50 (nM) were obtained.

[2] = tested on: LPS induced IL-6 release in human PBMC cells; experiment: Inhibition of LPS induced IL-6 release in human PBMC cells (IL-6 HTRF assay); type: cell-based; conditions: 2 h compound pre-incubation, LPS 5 ng/mL for 4 h, IL-6 in supernatant
Method: I. Recovery and seeding of PBMC, and treatment of compounds (human PBMC cells were purchased from Oricell, item number: Fpb003F)
• 1. Preparation of compounds Sample dilutions of a series of concentrations were obtained by dilution in DMSO using Bravo, and then 80 nL was transferred into a cell plate using ECHO. The final concentration of DMSO in the cell culture medium is 0.1%. • 2. Frozen cells were quickly thawed in a 37°C water bath and stirred continuously. • 3. 25 mL of fresh preheated culture medium was added into a 50 mL centrifuge tube, and then the cells were added dropwise. Then the cells were centrifuged at 2,000 rpm for 10 min. • 4. […] The total number of cells required was calculated based on cell concentration to perform the assay. 7×10e4 cells were added per well (70 µL). • 6. The cell plate was placed and incubated in a 5% CO2 incubator at 37°C for 2 h.
• 1. LPS: A stock solution (1 mg/mL) was diluted in dH2O, aliquoted, and stored at -80°C. • 2. 8-fold LPS was added per well (10 µl/well) (with a final concentration of 5 ng/mL). The cells were incubated in a 5% CO2 incubator at 37°C for 4 h. • 3. 70 µl of supernatant was collected per well using Bravo, and then IL-6 HTRF assay was performed. The supernatant may be stored at -80°C.
1. Preparation of standards and sample dilutions. 2. 16 µL of each sample was taken using Bravo and added to wells. Then 16 µL of each standard was taken and added to corresponding wells. 3.4 µL of a premixed IL6 antibody working solution was added to each of all wells. 4. The cell plate was sealed and incubated at room temperature for 2 h. 5.

[3] = Pharmacokinetic behavior in mice (plasma concentration by LC-MS/MS); type: in vivo; conditions: male ICR mice
Method: (§1) Three healthy ICR mice (SPF grade, from Beijing Vital River Laboratory Animal Technology Co., Ltd.), male, weighing 18-25 g, were intravenously injected with a compound (1 mg/kg) at a volume of 5 mL/kg. The compound was prepared using 5% DMSO+10% Solutol+85% Saline (w/v), and the animals were not fasted before the experiment.
as §1, with “were intragastrically administered” for “were intravenously injected with”, “compound (5” for “compound (1”, “of 10” for “of 5”
Blood samples (about 0.05 mL each) were collected from the cheeks at 5 min, 15 min, 30 min, 1 h, 2 h, 4 h, 6 h, 8 h, and 24 h after intravenous administration, and at 5 min, 15 min, 30 min, 1 h, 2 h, 4 h, 6 h, 8 h, and 24 h after intragastrical administration, and anticoagulated with heparin sodium. Following collection, the blood samples were placed on ice and the plasma was centrifuged within 1 h (centrifugation conditions: 6,000 g, 3 min, 2 °C to 8°C). The concentration of the compounds in the plasma was determined by liquid chromatography tandem mass spectrometry. The plasma samples were stored in a -80°C freezer before analysis. With plasma concentration data at different time points, pharmacokinetic parameters were calculated by Phoenix WinNonlin8.2.0, and the results are shown in Table 4: Table 4

[4] = 2 h incubation, read-out: Absolute DC50
[5] = 2 h incubation, read-out: Relative DC50
[6] = 6 h incubation, read-out: Absolute DC50
[7] = 6 h incubation, read-out: Relative DC50
[8] = Intragastric administration (5 mg/kg), 5 mg/kg
[9] = Intravenous injection (1 mg/kg), 1 mg/kg

Compound | Dmax ([1]; 2 h incubation) | DC50 [1, 4] | DC50 [1, 5] | Dmax ([1]; 6 h incubation) | DC50 [1, 6] | DC50 [1, 7] | also measured
CC(C)Oc1cc2nc([C@H]3CC[C@H](CCN4CCN5c6ccc(C7CCC(=O)NC7=O)cc6OCC5C4)CC3)cn2cc1C(=O)Nc1cnn2cccnc12 (stereo partly shown) [Compound 100] | 89% | 17.6 nM | 17.6 nM | – | – | – | IC50 [2]: 0.64 nM
CC(C)(O)c1cc2nn([C@H]3CC[C@H](CCN4CCN5c6ccc(C7CCC(=O)NC7=O)cc6OCCC5C4)CC3)cc2cc1NC(=O)c1cccc(C(F)(F)F)n1 (stereo partly shown) [Compound 130] | – | – | – | 97% | 8.13 nM | 8.51 nM | –
CC(C)(O)c1cc2nn(C3CCC(CCN4CCN5c6c(F)cc(NC7CCC(=O)NC7=O)cc6OCC5C4)CC3)cc2cc1NC(=O)c1cccc(C(F)(F)F)n1 (stereo not shown) [Compound 113] | 89% | 16.8 nM | 16.1 nM | – | – | – | IC50 [2]: 0.19 nM
CC(C)(O)c1cc2nn([C@H]3CC[C@H](CCN4CCN5c6ccc(C7CCC(=O)NC7=O)cc6OCC5C4)CC3)cc2cc1NC(=O)c1ccc2cc(C#N)cnn12 (stereo partly shown) [Compound 129] | – | – | – | 97% | 4.41 nM | 4.32 nM | –
CC(C)(O)c1cc2nn([C@H]3CC[C@H](CCN4CCN5c6ccc(C7(C)CCC(=O)NC7=O)cc6OC[C@H]5C4)CC3)cc2cc1NC(=O)c1cccc(C(F)(F)F)n1 (single isomer, unassigned) [Compound 120-b-1] | – | – | – | – | – | – | AUClast [3, 8]: 16903 ng·h/mL; Cmax [3, 8]: 1457 ng/mL; F% [3, 8]: 44.5%; T1/2 [3, 8]: 5.32 h; AUClast [3, 9]: 7249 ng·h/mL; CL [3, 9]: 2.10 mL/min/kg; Cmax [3, 9]: 888 ng/mL; Vss [3, 9]: 1.19 L/kg
COc1cc2nn([C@H]3CC[C@H](CCN4CCN5c6ccc(C7CCC(=O)NC7=O)cc6OCC5C4)CC3)cc2cc1C(=O)Nc1cccc(C(F)(F)F)n1 (stereo partly shown) [Compound 95] | – | – | – | 97% | 3.87 nM | 4.83 nM | –
CC(C)(O)c1cc2nn(C3CCN(CCN4CCN5c6ccc(C7CCC(=O)NC7=O)cc6OCC5C4)CC3)cc2cc1NC(=O)c1cccc(C(F)(F)F)n1 (stereo not shown) [Compound 99] | 66% | 40.3 nM | 13.5 nM | – | – | – | –
CC(C)(O)c1cc2nn([C@H]3CC[C@H](CN4CCC5(CC4)OCc4cc(C6CCC(=O)NC6=O)ccc45)CC3)cc2cc1NC(=O)c1cccc(C(F)(F)F)n1 (stereo partly shown) [Compound 114] | – | – | – | 85% | 4.85 nM | 3.99 nM | –
CC(C)(O)c1cc2nn([C@H]3CC[C@H](CCN4CCN5c6ccc(C7(C)CCC(=O)NC7=O)cc6OCC5C4)CC3)cc2cc1NC(=O)c1ccc2cc(C#N)cnn12 (stereo partly shown) [Compound 126] | – | – | – | 97% | 10.8 nM | 12.3 nM | –
CC(C)(O)c1cc2nn([C@H]3CC[C@H](CCN4CC5(CCN6c7ccc(C8CCC(=O)NC8=O)cc7NC6C5)C4)CC3)cc2cc1NC(=O)c1cccc(C(F)(F)F)n1 (stereo partly shown) [Compound 115] | – | – | – | 77% | 146 nM | 81.4 nM | –
CC(C)(O)c1cc2nn([C@H]3CC[C@H](CCN4CCN5c6ncc(C7CCC(=O)NC7=O)cc6OCC5C4)CC3)cc2cc1NC(=O)c1cccc(C(F)(F)F)n1 (stereo partly shown) [Compound 2] | – | – | – | 96% | 6.32 nM | 5.43 nM | –
[2H]C1(c2ccc3c(c2)OCC2CN(CCC4CCC(n5cc6cc(NC(=O)c7cccc(C(F)(F)F)n7)c(C(C)(C)O)cc6n5)CC4)CCN32)CCC(=O)NC1=O (stereo not shown) [Compound 101] | 87% | 7.2 nM | 4.28 nM | – | – | – | –
COc1cc2nn(C3CCN(CCN4CCC5(CC4)OCc4cc(C6CCC(=O)NC6=O)ccc45)CC3)cc2cc1NC(=O)c1cccc(C(F)(F)F)n1 (stereo not shown) [Compound 97] | – | – | – | 93% | 1.64 nM | 1.6 nM | –
COc1cc2nn(C3CCN(CCN4CCN5c6ccc(C7CCC(=O)NC7=O)cc6OCC5C4)CC3)cc2cc1NC(=O)c1cccc(C(F)(F)F)n1 (stereo not shown) [Compound 98] | – | – | – | 89% | < 1 nM | 0.2 nM | –

Continued, in another order:

Dmax ([1]; 2 h incubation) | DC50 [1, 4] | DC50 [1, 5] | Dmax ([1]; 6 h incubation) | DC50 [1, 6] | DC50 [1, 7] | Compound | also measured
– | – | – | 83% | 8.37 nM | 4.48 nM | CC(C)(O)c1cc2nn([C@H]3CC[C@H](CCN4CCN5c6ncc(N7CCC(=O)NC7=O)cc6OCC5C4)CC3)cc2cc1NC(=O)c1cccc(C(F)(F)F)n1 (stereo partly shown) [Compound 116] | –
61% | 4.62 nM | 0.96 nM | – | – | – | CC(C)(O)c1cc2nn([C@H]3CC[C@H](CCN4CCN5c6ccc(N7CCC(=O)NC7=O)cc6CCC5C4)CC3)cc2cc1NC(=O)c1cccc(C(F)(F)F)n1 (stereo partly shown) [Compound 118] | –
– | – | – | 89% | 11.7 nM | 10.3 nM | CC(C)(O)c1cc2nn([C@H]3CC[C@H](CCN4CCN5c6ccc(N7CCC(=O)NC7=O)cc6OCC5C4)CC3)cc2cc1NC(=O)c1cccc(C(F)(F)F)n1 (stereo partly shown) [Compound 117] | –
90% | 39 nM | 27.8 nM | – | – | – | CC(C)(O)c1cc2nn([C@H]3CC[C@H](CCN4CCN5c6ccc(C7(C)CCC(=O)NC7=O)cc6OCC5C4)CC3)cc2cc1NC(=O)c1cccc(C(F)(F)F)n1 (stereo partly shown) [Compound 120] | –
93% | 1.11 nM | 1.02 nM | – | – | – | CC(C)(O)c1cc2nn([C@H]3CC[C@H](CCN4CCN5c6ccc(C7CCC(=O)NC7=O)cc6CCC5C4)CC3)cc2cc1NC(=O)c1cccc(C(F)(F)F)n1 (stereo partly shown) [Compound 119] | –
